# In patent US4885305A, “Nasal compositions” (Yamanouchi Pharmaceutical Co., Ltd., priority 1984, dated 1989):
# Read-outs that look alike come from different tables or passages of the source.
# Experiment: Bioavailability trial of nicardipine in rhesus monkeys: nasal composition compared with oral route (gastric tube), plasma levels by gas chromatography
# Type: in vivo
# Settings: rhesus monkey; for AUC(0-t) at 24 h: read-out: AUC 0-24 h (area under the curve); for Tmax: read-out: T max (time to obtain C max)
# Procedure: This activity has been confirmed by standard bioavailability trials wherein nasal pharmaceutical compositions of the invention are compared with other conventional compositions and blood levels of drug are measured. In one trial, a nasal composition of the invention comprising 4 mg nicardipine hydrochloride per ml of distilled water has been administered nasally to rhesus monkeys (weight from 7 to 12 kg). A dose of 0.5 ml of this composition is sprayed each morning into each nostril. Blood samples are taken up 15 minutes, 30 minutes, 1 hour, 2 hours, 3 hours, 4 hours, 6 hours, 8 hours and 24 hours after administration and treated with lithium heparin. The treated blood samples are centrifuged and the concentration of nicardipine in the plasma is determined in conventional manner by converting the nicardipine into a corresponding pyridine derivative and determination by gas chromatographic techniques. The same animals are also treated in another similar trial with orally administered nicardipine at a dose of 20 mg by mean of a gastric tube.
# [1] = oral route (gastric tube), 20 mg
smiles,measurement,setting,value
COC(=O)C1=C(C)NC(C)=C(C(=O)OCCN(C)Cc2ccccc2)C1c1cccc([N+](=O)[O-])c1 (stereo not shown) [nicardipine],AUC(0-t) at 24 h,"nasal route, 4 mg",192 ± 36.3 ng·h/mL
same,Tmax,"nasal route, 4 mg",0.4 ± 0.1 h
same,AUC(0-t) at 24 h,[1],457 ± 86.6 ng·h/mL
same,Tmax,[1],2.1 ± 0.5 h
